The record followed here is US20250084097A1, “MACROCYCLIC AMIDE COMPOUNDS AND APPLICATION THEREOF” (Medshine Discovery Inc., priority 2021, published 2025).

Each structure is given as a SMILES string.

Holding throughout (assay): Cytochrome P450 isoenzyme inhibition, human liver microsomes
What all share (format): in vitro ADME
Background: Liver microsomes are a subcellular fraction often used to study metabolism.

One experiment deals with T1, CYP1A2 (Homo sapiens, UniProt P05177).
T1 construct: from tissue; host or cells: human liver microsomes
T1 sequence (P05177 whole entry): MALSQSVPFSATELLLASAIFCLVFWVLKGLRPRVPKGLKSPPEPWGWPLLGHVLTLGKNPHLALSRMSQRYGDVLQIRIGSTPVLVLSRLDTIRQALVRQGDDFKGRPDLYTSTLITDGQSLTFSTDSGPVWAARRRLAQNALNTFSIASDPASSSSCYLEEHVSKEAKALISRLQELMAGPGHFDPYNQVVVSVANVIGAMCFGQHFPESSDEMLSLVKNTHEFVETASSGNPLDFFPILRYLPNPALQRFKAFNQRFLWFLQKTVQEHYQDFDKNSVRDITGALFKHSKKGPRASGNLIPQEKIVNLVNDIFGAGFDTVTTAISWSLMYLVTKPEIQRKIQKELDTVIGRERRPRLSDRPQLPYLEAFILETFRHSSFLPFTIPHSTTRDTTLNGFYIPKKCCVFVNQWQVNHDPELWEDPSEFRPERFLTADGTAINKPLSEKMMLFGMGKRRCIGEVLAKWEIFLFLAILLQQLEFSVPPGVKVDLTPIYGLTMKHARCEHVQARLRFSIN
Conditions: read-out: Cytochrome P450 isoenzyme inhibitory concentration CYP1A2. The method, then:
(§1) The purpose of this study was to determine the inhibitory effect of test compounds on the activity of human liver microsomal cytochrome P450 isoenzymes (CYP1A2, CYP2C9, CYP2C19, CYP2D6 and CYP3A4).
(§2) Working solutions (100×final concentration) with concentrations of 5.00, 1.50, 0.500, 0.150, 0.0500, 0.0150, and 0.00500 mM were prepared by gradient dilution of the test compound (10.0 mM), while working solutions of each positive inhibitor and its specific substrate mixtures of P450 isozymes (CYP1A2, CYP2C9, CYP2C19, CYP2D6, and CYP3A4) were prepared; human liver microsomes stored in a refrigerator below −60° C. were thawed on ice; after all the human liver microsomes were thawed, the human liver microsomes were diluted with Potassium phosphate buffer (PB) to prepare a certain concentration of working solution (0.253 mg/ml).
(§3) First, 20.0 μL of the substrate mixture was added to a reaction plate (20.0 μL of PB was added to the Blank well), then 158 μL of human liver microsomal working solution was added to the reaction plate, and the reaction plate was placed on ice for use; at this time, 2.00 μL of each concentration of the test compound (N=1) and specific inhibitor (N=2) were added to the corresponding wells, and to the group without inhibitor (test compound or positive inhibitor) was added the corresponding organic solvent as control samples (1:1 DMSO:MeOH for the control sample of the test compound, and 1:9 DMSO:MeOH for all the positive control samples); after pre-incubation in a water bath at 37° C. for 10 min, 20.0 μL of cofactor (NADPH) solution was added to the reaction plate, and the reaction plate was incubated in a water bath at 37° C. for 10 min; The reaction was terminated by adding 400 μL of pre-cooled acetonitrile solution (containing 200 ng/mL Tolbutamide and Labetalol internal standard); the reaction plate was shaken on a shaker for 10 min; then centrifuged at 4000 rpm at 4° C. for 20 min; 200 μL of the supernatant was added to 100 μL of water to dilute the samples; and the plate was sealed, shaken for 10 min to mix well, and then analyzed by LC/MS/MS.
(§4) The rate of production of metabolites of each probe substrate was used to reflect the activity of each CYP isozyme. The activity of each isozyme in the solvent control incubation system without test article or positive inhibitor was set to be 100%, and the rate of production of metabolites of the probe substrate with different concentrations of test article or positive inhibitor was divided by the rate of production of metabolites of the solvent control samples, and then multiplied by 100% as the percentage of residual activity of each isozyme. The IC50 values of the test article and each positive inhibitor were calculated by nonlinear regression analysis using three or four parameters in XL fit software with the percentage of residual activity as the vertical coordinate and the inhibitor concentration as the horizontal coordinate. The IC50 values were labeled as “>50 μM” when the IC50 fitted by XL fit software was greater than the highest administered concentration (50 μM) or when the IC50 could not be fitted.

Another experiment deals with T2, CYP2C19 (Homo sapiens, UniProt P33261).
T2 construct: from tissue; host or cells: human liver microsomes
T2 sequence (P33261 whole entry): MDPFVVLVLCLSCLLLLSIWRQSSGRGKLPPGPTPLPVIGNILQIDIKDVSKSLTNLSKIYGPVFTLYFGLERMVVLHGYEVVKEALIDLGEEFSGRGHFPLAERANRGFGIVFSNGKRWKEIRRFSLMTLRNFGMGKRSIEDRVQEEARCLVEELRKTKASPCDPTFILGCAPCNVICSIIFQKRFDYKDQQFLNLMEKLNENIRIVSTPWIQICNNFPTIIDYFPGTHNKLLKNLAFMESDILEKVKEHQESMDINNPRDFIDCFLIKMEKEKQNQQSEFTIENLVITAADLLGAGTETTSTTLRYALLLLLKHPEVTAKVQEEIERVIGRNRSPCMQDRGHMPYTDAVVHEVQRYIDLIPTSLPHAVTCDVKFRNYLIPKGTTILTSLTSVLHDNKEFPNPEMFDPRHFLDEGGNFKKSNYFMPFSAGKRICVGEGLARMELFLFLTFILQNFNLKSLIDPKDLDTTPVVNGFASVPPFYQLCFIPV
Particulars: read-out: Cytochrome P450 isoenzyme inhibitory concentration CYP2C19. The method, then: as §1, §2, §3, §4

A further experiment addresses T3, CYP2C9 (Homo sapiens, UniProt P11712).
T3 construct: from tissue; host or cells: human liver microsomes
Particulars: read-out: Cytochrome P450 isoenzyme inhibitory concentration CYP2C9. The protocol: as §1, §2, §3, §4

The next experiment has as its target T4, CYP2D6 (Homo sapiens, UniProt P10635).
T4 construct: from tissue; host or cells: human liver microsomes
Conditions: read-out: Cytochrome P450 isoenzyme inhibitory concentration CYP2D6. The protocol:
as §1, §2, §3, §4

The target of another experiment is T5, CYP3A4 (Homo sapiens, UniProt P08684).
T5 construct: from tissue; host or cells: human liver microsomes
T5 sequence (P08684 whole entry): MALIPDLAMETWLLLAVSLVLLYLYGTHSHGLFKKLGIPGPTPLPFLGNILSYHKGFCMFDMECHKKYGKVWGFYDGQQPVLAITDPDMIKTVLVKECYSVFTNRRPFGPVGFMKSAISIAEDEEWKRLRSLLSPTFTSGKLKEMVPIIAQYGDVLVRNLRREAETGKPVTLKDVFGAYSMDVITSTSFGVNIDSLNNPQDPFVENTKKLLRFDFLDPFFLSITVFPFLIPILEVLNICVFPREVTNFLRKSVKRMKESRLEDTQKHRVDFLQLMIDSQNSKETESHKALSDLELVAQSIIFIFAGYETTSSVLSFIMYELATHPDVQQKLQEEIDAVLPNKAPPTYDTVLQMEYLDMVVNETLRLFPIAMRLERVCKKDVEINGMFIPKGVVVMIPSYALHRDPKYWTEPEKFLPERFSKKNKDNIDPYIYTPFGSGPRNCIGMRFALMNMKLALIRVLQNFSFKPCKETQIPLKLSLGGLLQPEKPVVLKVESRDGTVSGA
Conditions: read-out: Cytochrome P450 isoenzyme inhibitory concentration CYP3A4. The method, then: as §1, §2, §3, §4

T3 sequence (P11712 whole entry): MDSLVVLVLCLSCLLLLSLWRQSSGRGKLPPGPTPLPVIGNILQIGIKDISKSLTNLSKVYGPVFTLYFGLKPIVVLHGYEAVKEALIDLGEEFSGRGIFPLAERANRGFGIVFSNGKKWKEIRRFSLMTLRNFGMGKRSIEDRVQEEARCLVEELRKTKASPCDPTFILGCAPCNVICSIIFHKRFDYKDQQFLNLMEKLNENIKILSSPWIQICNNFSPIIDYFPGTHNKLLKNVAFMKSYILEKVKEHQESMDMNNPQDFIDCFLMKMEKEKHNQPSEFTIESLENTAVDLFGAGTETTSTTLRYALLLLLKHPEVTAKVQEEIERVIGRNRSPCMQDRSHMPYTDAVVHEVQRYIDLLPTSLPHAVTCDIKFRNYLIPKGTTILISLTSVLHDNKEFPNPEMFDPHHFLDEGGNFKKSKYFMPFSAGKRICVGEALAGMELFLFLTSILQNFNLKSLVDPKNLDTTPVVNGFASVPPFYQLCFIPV
T4 sequence (P10635 whole entry): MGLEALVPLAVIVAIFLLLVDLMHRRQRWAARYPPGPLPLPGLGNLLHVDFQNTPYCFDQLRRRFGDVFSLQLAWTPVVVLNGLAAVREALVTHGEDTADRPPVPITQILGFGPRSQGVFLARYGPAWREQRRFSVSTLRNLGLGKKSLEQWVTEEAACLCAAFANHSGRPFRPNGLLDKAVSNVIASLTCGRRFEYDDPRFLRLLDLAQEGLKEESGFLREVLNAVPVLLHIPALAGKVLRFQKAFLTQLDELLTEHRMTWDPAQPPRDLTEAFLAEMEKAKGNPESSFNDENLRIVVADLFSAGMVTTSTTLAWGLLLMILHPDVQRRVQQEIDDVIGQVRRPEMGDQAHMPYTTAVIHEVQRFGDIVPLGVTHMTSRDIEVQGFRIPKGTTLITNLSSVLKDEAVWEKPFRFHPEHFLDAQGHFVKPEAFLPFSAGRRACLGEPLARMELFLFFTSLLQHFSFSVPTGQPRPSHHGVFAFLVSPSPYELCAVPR

On to `Cc1cc2cc(n1)-c1cnn(C)c1OC[C@H]1CC[C@H](C1)CN1/C(=N/C2=O)Nc2ccc(N=S(C)(C)=O)cc21` (single isomer, unassigned) [WX-027A], for which the IC50 on CYP1A2 is > 50 µM; on CYP2C19, 9.8 µM; at CYP2C9, 14 µM; on CYP2D6 it was > 50 µM; at CYP3A4, 20 µM.
In the case of `Cc1cc2cc(n1)-c1cnn(C)c1OCCC[C@@H](C)CN1/C(=N/C2=O)Nc2ccc(N=S(C)(C)=O)c(Cl)c21` [WX-019], the IC50 on CYP1A2 is > 50 µM; on CYP2C19 it was 3.4 µM; on CYP2C9 it was 31 µM; at CYP2D6 it was > 50 µM; on CYP3A4, > 50 µM.
